Like-named read-outs stand apart in the source and are kept apart here.
Tests used:
caspase 3/7 = assay: CASPASE-GLO caspase 3/7 assay in AsPC-1 cells; type: cell-based, human; details: for caspase activity compared to 4 μM SW V-49s: 50 μM, 24 hr., FIG. 5A
From the text: In these experiments, the inventors investigated whether compounds of the present teachings were lethal towards pancreatic cancer cells by triggering an apoptosis cell death pathway, a ferroptosis cell death pathway, or a combination thereof. The inventors thus performed assays for caspase 3/7 as an indicator of apoptotic cell death, and assays for the generation of reactive oxygen species (ROS) as an indicator of ferropoptotic cell death. […] In FIG. 5B, results are shown for Caspase-Glo® (Promega) assays of Aspc-1 cells treated with 8 μM SW V-49s, 8 μM Erastin, 8 μM SV119, or 8 μM of an equimolar mixture of Erastin and SV 119, for 7 hrs.
In these experiments, caspase-3/7.8 and 9 activities were measured In AsPC-1 cells using the corresponding CASPASE-GLO® Assay according to the manufacturer's instructions (Promega, Madison. Wis.). This assay is based on a caspase-specific substrate, which is cleaved to release aminoluciferin, a substrate of luciferase that results in caspase-specific luminescence signals. Cells were seeded at a density of 2×10^4 in white 96-well, clear bottom plates for 24 hours before treatment with 4 μM of compounds. The contents were then mixed using a plate shaker for 30 seconds, thereafter incubated at room temperature for 90 minutes. Luminescence signal was measured using a multi-mode microplate reader (BioTek). Assay was performed in triplicates, and the caspase activity of DMSO was considered as a base line.
The present inventors have shown that SV119 induces caspase-3 dependent apoptosis (Kashiwagi, H., el al. Mol Cancer 2007; 6:48). In these experiments, AsPC-1 cells were treated with 4 μM of SW V-49s. SV119, Erastin, and equimolar mixture of SV119 and Erastin for 24 hours. Using CASPASE-GLO® Assays, Caspase-3 level was measured to assess the activity of SW 119 domain of the SW V-49s compound and Caspase-8 and 9 levels were measured to identify which apoptotic pathway was involved.

KCKO cells = assay: Viability assay (CELLTITER-GLO), 24 hours treatment; type: cell-based, murine
Method: (§1) In these experiments, viability assays after 24 hours treatment of human and murine pancreatic cancer cell lines and synovial sarcoma cell lines with SW V-49s or its parent compounds SV119 and Erastin, both singly and in combination, were performed. […] In comparison.
(§2) Cytotoxicity of the drugs was evaluated by CELLTITER-GLO®. Luminescent cell viability assay (Promega, Madison, Wis.). Pancreatic cell lines were plated at a density of 2×10^4/well in white 96 well, clear bottom plates for 24 hours prior to treatment. Drugs were dissolved in DMSO and serially diluted in culture medium to achieve the final concentration of DMSO less than 1%. Cells were then treated for 24 hours and 100 μl of the CELLTITER-GLO® reagent was added to each well. The contents of the plates were mixed using an orbital shaker and subsequently incubated for 10 minutes at room temperature. Luminescence signal was measured using a multi-mode microplate reader (BioTek instruments. Winooski, Vt.). Different drug concentrations were assayed in triplicate. To evaluate the efficacy of the drugs, IC50 of the compounds was calculated on a panel of human and mouse derived pancreatic cancer cell lines in vitro. Cells were treated for 24 hours with SW V-49s, SV119, Erastin, and an equimolar mixture of SV119 and Erastin, then CELLTITER-GLO® viability assay was performed.

BxPC-3 = assay: as above; type: cell-based, human
Method: as §1, §2

PANC-1 = assay: as above; type: cell-based, human
Method: as §1, §2

MIA PaCa-2 = assay: as above; type: cell-based, human
Method: as §1, §2

SYO-1 = assay: Viability assay, 24 hours treatment, synovial sarcoma cells; type: cell-based
Method: as §1
Synovial sarcoma cell lines (FIG. 4F, SYO-1, ME1 deficient) are so sensitive to SW V-49s that it was difficult to measure the minimal drug concentration required to kill 50% of the cancer cells, but the measured IC50 was approx. 1.0 μM.
AsPC-1 and SYO-1 cells were plated in 96 well plate overnight then treated with similar concentrations of Erastin for 24 hours. Viability assay was performed after 24 hours. […] (p<0.0001), (FIG. 10).

[1] = 24 hours treatment, SYO-1, ME1 deficient, FIG. 4F, read-out: IC50

Q: Which “caspase activity compared to 4 μM SW V-49s” value (caspase 3/7; AsPC-1 cells) does the source give for `COc1ccc(C)cc1NC(=O)OC1C[C@H]2CCC[C@@H](C1)N2CCCCCCN` (stereo partly drawn) [SV119, reference compound] here?
A: far less caspase activity

Q: And the IC50 (KCKO cells; 24 hours, mean ± SEM, n ≥ 3, read-out: IC50 ± SEM, KCKO)?
A: 68.7 ± 10.1 µM

Q: And the IC50 (BxPC-3; 24 hours, mean ± SEM, n ≥ 3, read-out: IC50 ± SEM, BxPC-3)?
A: 54.2 ± 2.6 µM

Q: What about the IC50 (PANC-1; 24 hours, mean ± SEM, n ≥ 3, read-out: IC50 ± SEM, PANC-1) of the same molecule?
A: 111 ± 5.3 µM

Q: What about the IC50 (MIA PaCa-2; 24 hours, mean ± SEM, n ≥ 3, read-out: IC50 ± SEM, MiaPaCa-2) of the same molecule?
A: 94.5 ± 1.9 µM

Q: And the IC50 (SYO-1; [1])?
A: 6.2 µM

Q: Which results are given for `CCOc1ccccc1-n1c(CN2CCN(C(=O)COc3ccc(CNCCCCCCN4C5CCCC4CC(OC(=O)Nc4cc(C)ccc4OC)C5)cc3)CC2)nc2ccccc2c1=O.O=C(O)C(=O)O` (stereo not drawn) [SW V-49s]?
A: caspase-3 fold above baseline (caspase 3/7; 4 μM, 24 hours, AsPC-1, DMSO baseline, FIG. 12A): 3.4 fold; increase in caspase 3/7 activity compared to all controls (caspase 3/7; 8 μM, 7 hrs, AsPC-1 cells, FIG. 5B): approximately 3 fold; IC50 (KCKO cells; Mus musculus, 24 h, read-out: IC50 concentration): 2.2 µM; IC50 (KCKO cells; Mus musculus, 24 hours, mean ± SEM, n ≥ 3, read-out: IC50 ± SEM, KCKO): 2.4 ± 0.2 µM; IC50 (BxPC-3; Homo sapiens, BXPC-3, 24 h, read-out: IC50 concentration): 2.3 µM; IC50 (BxPC-3; Homo sapiens, BXPC-3, 24 hours, mean ± SEM, n ≥ 3, read-out: IC50 ± SEM, BxPC-3): 2.5 ± 0.1 µM; IC50 (PANC-1; Homo sapiens, PANC-1, 24 h, read-out: IC50 concentration): 4.3 µM; IC50 (PANC-1; Homo sapiens, PANC-1, 24 hours, mean ± SEM, n ≥ 3, read-out: IC50 ± SEM, PANC-1): 4.1 ± 0.2 µM; IC50 (MIA PaCa-2; Homo sapiens, MIA PaCa-2, 24 h, read-out: IC50 concentration): 2.3 µM; IC50 (MIA PaCa-2; Homo sapiens, MIA PaCa-2, 24 hours, mean ± SEM, n ≥ 3, read-out: IC50 ± SEM, MiaPaCa-2): 3 ± 0.3 µM; IC50 (SYO-1; [1]): ~1 µM

Q: Which results are given for `CCOc1ccccc1-n1c(C(C)N2CCN(C(=O)COc3ccc(Cl)cc3)CC2)nc2ccccc2c1=O` (stereo not drawn) [Erastin]?
A: caspase activity compared to 4 μM SW V-49s (caspase 3/7; AsPC-1 cells): far less caspase activity; IC50 (KCKO cells; Mus musculus, 24 h, read-out: IC50 ± SEM, KCKO): > 150 µM; IC50 (BxPC-3; Homo sapiens, BXPC-3, 24 h, read-out: IC50 ± SEM, BxPC-3): > 150 µM; IC50 (PANC-1; Homo sapiens, PANC-1, 24 h, read-out: IC50 ± SEM, PANC-1): > 150 µM; IC50 (MIA PaCa-2; Homo sapiens, MIA PaCa-2, 24 h, read-out: IC50 ± SEM, MiaPaCa-2): > 150 µM; death of cells (SYO-1; 40 μM, 24 hours, SYO-1 cells, FIG. 10): 84%; IC50 (SYO-1; 24 h): > 16 µM

From patent US10975069B2, “Sigma-2 receptor ligand drug conjugates as antitumor compounds, methods of synthesis and uses thereof” (priority 2014, dated 2021)
